From ChEMBL document CHEMBL3091331, “Aminothiazole-featured pirinixic acid derivatives as dual 5-lipoxygenase and microsomal prostaglandin E2 synthase-1 inhibitors with improved potency and efficiency in vivo” (J Med Chem, 2013) come the findings set out here.

The structures appear in SMILES notation. Calls of active or inactive are those of the source. No cut-off for these calls is given here.

Data set [1] deals with Mus musculus. Put plainly: Antiinflammatory activity in CD-1 mouse peritonitis model assessed as reduction in myeloperoxidase activity at 10 mg/kg, ip administered 30 mins prior to zymosan-challenge measured after 4 hrs by spectrophotometry relative to vehicle-treated control. The class given is functional. Conditions: CD-1, ip, route intraperitoneal.
Data set [2] deals with Mus musculus. Put plainly: Antiinflammatory activity in CD-1 mouse peritonitis model assessed as reduction in neutrophil infiltration at 10 mg/kg, ip administered 30 mins prior to zymosan-challenge measured after 4 hrs by spectrophotometry relative to vehicle-treated control. It counts as functional. Conditions: CD-1, ip, route intraperitoneal.
In data set [3] the test system is Mus musculus. Briefly: Reduction of LTC4 formation in CD-1 mouse peritonitis model at 10 mg/kg, ip administered 30 mins prior to zymosan-challenge measured after 30 mins by EIA relative to vehicle-treated control. The class given is functional. Conditions: CD-1, ip, route intraperitoneal.
Data set [4] can be described thus: Metabolic stability in Sprague-Dawley rat liver microsomes assessed as compound remaining at 10 uM after 60 mins by HPLC analysis. As to conditions: read-out: Stability. It counts as ADME.
The target in data set [5] is Mitogen-activated protein kinase 1 (Homo sapiens) (UniProt P28482). Briefly: Inhibition of fMLP-mediated ERK2 phosphorylation in human polymorphonuclear leukocytes incubated for 15 mins prior to fMLP-challenge measured after 1.5 mins by SDS-PAGE analysis. It counts as cell-based.
Data set [6] can be described thus: (§1) Inhibition of reactive oxygen species generation in fMLP-stimulated human polymorphonuclear leukocytes incubated for 15 mins prior to fMLP-challenge by fluorescence assay. It counts as functional.
The species named for a further data set is Homo sapiens. The data set is described as §1. The class given is functional.
Data set [7] has as its system Radical scavenging activity. Put plainly: Antioxidant activity assessed as DPPH radical scavenging activity at 10 uM after 30 mins. It counts as functional.
Data set [8] deals with T1, Prostaglandin G/H synthase 1 (Ovis aries) (UniProt P05979).
T1 sequence (whole entry): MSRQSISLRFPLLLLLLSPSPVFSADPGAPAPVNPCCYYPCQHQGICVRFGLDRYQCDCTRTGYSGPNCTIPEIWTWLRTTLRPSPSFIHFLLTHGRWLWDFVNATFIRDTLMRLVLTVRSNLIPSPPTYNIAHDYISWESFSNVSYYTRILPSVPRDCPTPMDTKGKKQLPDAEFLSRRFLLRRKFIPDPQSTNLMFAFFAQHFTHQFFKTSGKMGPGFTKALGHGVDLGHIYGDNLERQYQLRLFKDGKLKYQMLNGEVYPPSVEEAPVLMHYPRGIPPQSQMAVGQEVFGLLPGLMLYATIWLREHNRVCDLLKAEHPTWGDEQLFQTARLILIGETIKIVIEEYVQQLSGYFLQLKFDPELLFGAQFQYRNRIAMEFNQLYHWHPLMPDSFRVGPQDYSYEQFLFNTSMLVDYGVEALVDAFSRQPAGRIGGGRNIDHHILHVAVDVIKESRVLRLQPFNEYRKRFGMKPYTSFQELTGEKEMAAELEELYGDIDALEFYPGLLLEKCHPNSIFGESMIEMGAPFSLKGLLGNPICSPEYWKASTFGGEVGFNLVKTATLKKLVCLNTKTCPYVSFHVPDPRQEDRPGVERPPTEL
Briefly: Inhibition of ovine COX1 using arachidonic acid as substrate at 10 uM incubated 5 mins prior to substrate addition measured after 5 mins by HPLC analysis.

The target in data set [9] is T2, Polyunsaturated fatty acid lipoxygenase ALOX12 (Homo sapiens) (UniProt P18054).
T2 sequence (whole entry): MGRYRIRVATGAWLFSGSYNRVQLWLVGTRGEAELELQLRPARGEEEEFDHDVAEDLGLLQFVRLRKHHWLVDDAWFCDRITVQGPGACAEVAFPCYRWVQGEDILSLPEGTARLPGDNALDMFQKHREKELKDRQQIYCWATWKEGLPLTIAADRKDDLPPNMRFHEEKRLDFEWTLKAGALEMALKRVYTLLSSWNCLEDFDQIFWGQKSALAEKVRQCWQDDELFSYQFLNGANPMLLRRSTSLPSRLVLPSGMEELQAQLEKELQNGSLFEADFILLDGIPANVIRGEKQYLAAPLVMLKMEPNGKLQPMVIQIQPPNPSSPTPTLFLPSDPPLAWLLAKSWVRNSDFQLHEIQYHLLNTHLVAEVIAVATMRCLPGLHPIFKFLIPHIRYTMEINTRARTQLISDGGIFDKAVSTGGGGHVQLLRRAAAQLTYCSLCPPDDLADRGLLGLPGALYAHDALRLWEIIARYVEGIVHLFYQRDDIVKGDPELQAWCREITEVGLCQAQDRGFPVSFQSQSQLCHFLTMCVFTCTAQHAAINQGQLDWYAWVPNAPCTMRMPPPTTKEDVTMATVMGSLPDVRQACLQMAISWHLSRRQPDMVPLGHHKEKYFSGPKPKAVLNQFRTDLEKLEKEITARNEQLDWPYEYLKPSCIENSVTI
Briefly: Inhibition of 12-lipoxygenase in human polymorphonuclear leukocytes using arachidonic acid as substrate assessed as remaining activity at 10 uM incubated 15 mins prior to substrate addition measured after 10 mins by HPLC analysis relative to control. It counts as cell-based.

Data set [10] is described as follows: Cytotoxicity against human polymorphonuclear leukocytes at 10 uM after 1 hr by trypan blue staining.
Data set [11] deals with T3, Polyunsaturated fatty acid 5-lipoxygenase (Homo sapiens, UniProt P09917).
T3 sequence (P09917 whole entry): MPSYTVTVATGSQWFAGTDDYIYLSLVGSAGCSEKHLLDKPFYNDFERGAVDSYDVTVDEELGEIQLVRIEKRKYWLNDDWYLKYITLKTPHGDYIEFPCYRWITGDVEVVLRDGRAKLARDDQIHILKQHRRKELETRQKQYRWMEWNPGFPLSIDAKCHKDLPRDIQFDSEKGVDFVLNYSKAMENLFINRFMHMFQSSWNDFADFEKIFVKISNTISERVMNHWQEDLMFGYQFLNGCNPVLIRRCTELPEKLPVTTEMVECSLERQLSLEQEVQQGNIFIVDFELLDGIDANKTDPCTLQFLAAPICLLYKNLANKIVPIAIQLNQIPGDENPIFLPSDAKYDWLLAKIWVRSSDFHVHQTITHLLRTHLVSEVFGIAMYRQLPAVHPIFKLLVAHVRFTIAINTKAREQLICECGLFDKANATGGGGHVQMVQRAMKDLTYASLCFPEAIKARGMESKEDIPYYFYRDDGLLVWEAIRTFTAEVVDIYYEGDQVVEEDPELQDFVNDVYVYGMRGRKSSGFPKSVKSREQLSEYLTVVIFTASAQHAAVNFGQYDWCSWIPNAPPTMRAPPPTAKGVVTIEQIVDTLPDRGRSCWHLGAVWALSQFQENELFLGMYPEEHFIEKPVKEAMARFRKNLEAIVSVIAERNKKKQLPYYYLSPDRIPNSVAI
Put plainly: Inhibition of human recombinant 5-lipoxygenase expressed in Escherichia coli BL21 using arachidonic acid as substrate incubated 5 to 10 mins prior to substrate addition measured after 10 mins by HPLC analysis.

Data set [12] has as its target T3, Polyunsaturated fatty acid 5-lipoxygenase. Put plainly: Inhibition of 5-lipoxygenase in A23187-stimulated human polymorphonuclear leukocytes using arachidonic acid as substrate incubated 15 mins prior to substrate addition measured after 10 mins by HPLC analysis.
Data set [13] is described as follows: Cytotoxicity against human polymorphonuclear leukocytes at 10 uM after 1 hr by light microscopic analysis.

Chain of Mitogen-activated protein kinase 1 (Homo sapiens) (P28482 whole entry): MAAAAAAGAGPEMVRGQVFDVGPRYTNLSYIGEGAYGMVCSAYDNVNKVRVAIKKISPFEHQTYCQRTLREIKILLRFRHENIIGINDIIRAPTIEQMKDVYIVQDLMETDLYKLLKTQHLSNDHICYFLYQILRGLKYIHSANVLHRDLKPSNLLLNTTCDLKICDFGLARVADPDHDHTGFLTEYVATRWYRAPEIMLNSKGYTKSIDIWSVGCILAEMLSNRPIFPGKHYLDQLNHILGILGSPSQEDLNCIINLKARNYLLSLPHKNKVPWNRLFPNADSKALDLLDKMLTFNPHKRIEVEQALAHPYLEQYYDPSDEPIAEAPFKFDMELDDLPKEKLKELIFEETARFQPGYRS

Regarding `CCCCCCC(Sc1nc(Cl)cc(Nc2nc(-c3ccc4ccccc4c3)cs2)n1)C(=O)O` (racemic), the inhibition in vivo at 10 mg/kg was 23% with Mus musculus [1], 45% in the data set with Mus musculus [2] and 84% in the data set on Mus musculus [3]. In data set [4], the remaining at 1 h, 10 µM amounted to 77%. The inhibition result in [5] was “inactive”. The IC50 in data set [6] was 3000 nM; in data set [11], 300 nM; in data set [12], 200 nM. The inhibition result is “Dose-dependent effect” in the data set listed under Homo sapiens and 39% in data set [8]. The result in [7] was inactive. In addition, the values for the Activity in data set [9], in [10] and in data set [13] were 168%, “Non-toxic” and “Non-toxic”, respectively.
